In test [1] the test system is A. oris MG-1 (wild-type) versus ΔsrtA/ΔgspA strain. The test is described as follows: High-throughput cell-based growth screen and counter-screen (differential growth). More on the design: species or system Actinomyces oris. Conditions: differential effect on wild-type MG-1 and ΔgspAΔsrtA strains in the HTS; 10 µM, in duplicate; 100 = extreme difference, 0 = none. The procedure:
In the primary screen, a total of 200,834 small molecules were tested for their ability to impair A. oris MG-1 growth. Cells were added to an optical density (OD600) of 0.01 in media containing 10 µM of each molecule, followed by a 15 hour incubation at 37 °C and end-point OD600 measurement. The growth effect of each molecule was normalized and expressed as a percent growth relative to the DMSO-only control (see Methods). A total of 1,904 molecules were classified as preliminary hits (0.95% of the molecules tested), as they reduced MG-1 growth after 15 hours by at least 34%, or 2.75 standard deviations below the average. The preliminary hits were then subjected to a counter-screen in which their growth effects on ΔsrtA/ΔgspA were determined. In order to eliminate potentially erroneously identified preliminary hits, the counter-screen and preliminary screen was performed in duplicate for the 1,904 preliminary hit molecules. A molecule was deemed as a hit if it caused greater than 15% differential growth effect in duplicate when the MG-1 and ΔsrtA/ΔgspA strains were compared. […] Data is plotted as the percentage of growth inhibition for each molecule (see Methods).
A total of 200,834 small molecule compounds (Molecular Screening Shared Resource, UCLA) were dissolved in 100% Omnisolv methylsulfoxide (MilliporeSigma MX1456P-6) and stored in 384-well polypropylene plates. Actinomyces oris MG-1 and ΔgspAΔsrtA were streaked out on BHI agar plates containing 50 µg/mL kanamycin and grown at 37 °C for 48 hours to allow single colonies to grow. Cultures were started from 2–3 colonies in BHI with 50 µg/mL kanamycin and allowed to grow until an OD600 between 0.1–0.4. Meanwhile, 384-well plates were filled with 25 µL BHI broth with 100 µg mL^−1 kanamycin (columns 1–22) or 200 µg mL^−1 Penicillin G (positive control, columns 23–24). Five hundred nanoliters of small molecules were transferred into the media (columns 3–22) using the Biomex FX^P automated work station with a 384-well pin tool. Precultures were diluted to an OD600 of 0.02 in 1 L BHI broth without antibiotics. Twenty five microliters of cell culture was immediately aliquoted into plates containing 25 µL media, antibiotics, and small-molecules using a Multidrop (Thermo LabSystems), resulting in 50 µg mL^−1 kanamycin and 10 µM small molecules with 1% DMSO or 100 µg mL^−1 Penicillin G. Plates were immediately lidded and placed into a humidified Cytomat 6001 incubator at 37 °C and allowed to grow for 15.5 hours. Following incubation, plates were removed from the Cytomat using a Thermo Spinnaker robotic arm on a rail, de-lidded, and placed into an EnVision high-speed plate reader for optical density measurement at 620 nm.
Raw data obtained from the screen was formatted in-house to upload to the Collaborative Drug Discovery Vault (www.collaborativedrug.com). Individual optical density readings were converted to a percent growth value ([ODsample-ODPositive control]/[ODNegative Control Average- ODPositive control]) and percent growth inhibition (1-percent growth). The Z-factors for the individual molecules were determined. Molecules with a Z-factor less than or equal to -2.75 were considered preliminary hits to advance forward a generous collection of preliminary hit molecules. Five microliters of each of the 1904 preliminary hit molecules were re-arrayed into new 384-well polypropylene plates. Each of the 1904 preliminary hits were assayed against both the MG-1 and ΔgspAΔsrtA strains in duplicate, on two separate days. Percent difference of growth was calculated according to the equation 100–100[(ODMG-1, Sample-ODMG-1, Positive Control)/ODΔgspAΔsrtA, Sample-ODΔgspAΔsrtA, Positive Control)]/[(ODMG-1, Average-ODMG-1, Positive Control)/ODΔgspAΔsrtA, Average-ODΔgspAΔsrtA, Positive Control)]. […] Molecules were ranked according to their relative growth.
(A counterscreen serves to expose hits that act by an unwanted route or on another target.)

A further test has as its system A. oris MG-1. Put plainly: Minimum inhibitory concentration, MG-1 strain. The format is cell-based. Conditions: Actinomyces oris, MG1; BHI, 96-well plates, 18 hours. The procedure:
(§1) Two validation assays were performed for each hit molecule that measured: (i) the minimum inhibitory concentration (MIC) required to prevent growth of the MG-1 and ΔsrtA/ΔgspA strains, and (ii) their in vitro inhibitory activity against the enzymatic activity of the A. oris and S. aureus sortase enzymes. Initially, the selective growth effect originally observed in the HTS that used 384-well plates was more rigorously defined by determining each molecule’s MIC value for the MG-1 and ΔsrtA/ΔgspA strains. Cells were cultured in 100 µL media containing 2-fold dilutions of each small molecule between 320 µM and 0.039 µM (approximately 134 µg mL^−1 to […]).
(§2) Minimum inhibitory concentration (MIC) values were determined for molecules 1–6 according to the Clinical Laboratory Standard Institutes’ (CLSI) Methods for Dilution Antimicrobial Susceptibility Tests for Bacteria that Grow Aerobically, Approved standards-ninth edition; M07-A9 Vol. 32 No. 2 with the following alterations. Overnight cultures of MG-1 and ΔgspAΔsrtA were diluted to OD600 values of 0.01 before being added to BHI containing the appropriate molecule in 96-well plates. Mueller-Hinton broth was not usable because A. oris is a fastidious bacterium. Plates were sealed with Breatheasy seals and incubated for 18 hours, as A. oris has a doubling time of 2 hours. Plate seals were removed and OD600 values measured. Each plate was run with a positive control (cells, media, and Penicillin G), negative control (media and cells only), and contamination control (media only).

The next test deals with A. oris ΔgspAΔsrtA. Put plainly: Minimum inhibitory concentration, ΔgspA/ΔsrtA strain. The format is cell-based, Actinomyces oris. The settings on record: BHI, 96-well plates, 18 hours. The procedure: as §1, §2
The target in the next test is AoSrtA (Actinomyces oris, UniProt A0A0X8K1J2). Put plainly: FRET-based in vitro sortase activity assay, AoSrtA. The format is biochemical. The settings on record: for Inhibition of AoSrtA in vitro: FRET assay; for IC50: IC50 (A. oris), AoSrtA 10 µM, Abz-LAQTG-Dap(Dnp)-NH2, 1 hour preincubation. The procedure:
(§3) The ability of the hit molecules to inhibit sortase activity was measured in vitro using an established FRET-based assay[13] that measures the ability of each enzyme to cleave a fluorogenic peptide substrate; Abz-LAQTG-Dap(Dnp)-NH2 and Abz-LPETG-Dap(Dnp)-NH2, substrates for ^AoSrtA and ^SaSrtA, respectively. Each enzyme cleaves between the threonine and glycine bond in these peptides, leading to a measurable increase in fluorescence (see Methods). The IC50 value of each compound was determined for both the ^AoSrtA and ^SaSrtA enzymes.
(§4) IC50 values for the six hit molecules against the ^AoSrtA and ^SaSrtA enzymes were determined as previously described, with some modifications. Briefly, molecules 1–6 were serial diluted 2-fold (from 1.25 mM to 2.44 µM, 500 µM to 0.98 µM final assay concentration) into 25 µM ^AoSrtA or ^SaSrtA (final assay concentration 10 µM) in buffer A (20 mM HEPES pH 7, 5 mM CaCl2, 0.05% TWEEN, 30% DMSO). The final DMSO concentration was […] in the assay. Samples were incubated 1 hour at room temperature and aliquoted into a 384-well plate (EK-30892). Thirty microliters of FRET peptide (Peptide 2.0) in buffer B (20 mM HEPES pH 7, 5 mM CaCl2, 0.05% TWEEN), […] for ^SaSrtA or Abz-LAQTG-Dap(Dnp)-NH2 for ^AoSrtA was added and the plate was immediately placed into a Flexstation II plate reader (Molecular Devices) and fluorescence was recorded at 335/420 nm excitation/emission wavelengths after 5 seconds of plate shaking to mix the reaction components. Plate fluorescence was measured over the course of 30 minutes.

Another test concerns the target SaSrtA (Staphylococcus aureus, UniProt Q2FV99). Put plainly: FRET-based in vitro sortase activity assay, SaSrtA. In kind it is biochemical. The procedure: as §3, §4

Converted amounts (≈) assume the structure as drawn.

Sequence of AoSrtA (A0A0X8K1J2 entry or part of it): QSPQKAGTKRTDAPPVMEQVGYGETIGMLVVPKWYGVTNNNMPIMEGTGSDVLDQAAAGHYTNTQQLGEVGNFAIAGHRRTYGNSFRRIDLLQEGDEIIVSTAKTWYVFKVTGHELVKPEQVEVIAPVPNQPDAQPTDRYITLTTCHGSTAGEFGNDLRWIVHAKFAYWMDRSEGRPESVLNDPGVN
Sequence of SaSrtA (Q2FV99 whole entry): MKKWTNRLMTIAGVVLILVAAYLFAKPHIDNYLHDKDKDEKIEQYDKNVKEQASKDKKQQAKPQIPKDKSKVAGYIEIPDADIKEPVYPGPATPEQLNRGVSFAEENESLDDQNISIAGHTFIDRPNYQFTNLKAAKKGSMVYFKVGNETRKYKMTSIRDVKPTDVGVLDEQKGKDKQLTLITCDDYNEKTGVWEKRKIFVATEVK

In the case of `Cc1ccc(S(=O)(=O)Cc2nc3cc(-c4ccccc4)sc3c(=O)[nH]2)cc1` [Compound 1], in test [1], the “Differential Growth” value was 65.7 ± 0.5%. The same compound returned an MIC with A. oris MG-1 of 2 µg/mL (≈ 5.04 µM). In addition, in the test on A. oris ΔgspAΔsrtA, the “MIC (ΔgspA/ΔsrtA)” value amounted to 4.0 µg/mL (≈ 10.1 µM). Besides, the “Inhibition of AoSrtA in vitro” value on AoSrtA is given as “failed to inhibit”. Further, the IC50 is above 479 µM against AoSrtA and 202 µM against SaSrtA.

In the case of `O=C(c1cc(-c2ccc(F)cc2)n[nH]1)N1CC(c2nc(-c3ccccc3)no2)C1` [Compound 5], the “Differential Growth” value in test [1] was 96.2 ± 0.3%. Besides, 1 µg/mL (≈ 2.57 µM) was the least that counted as inhibitory against A. oris MG-1 (MIC). Also, in the test on A. oris ΔgspAΔsrtA, the “MIC (ΔgspA/ΔsrtA)” value came out at 2.0 µg/mL (≈ 5.14 µM). On AoSrtA, the “Inhibition of AoSrtA in vitro” value is reported as “failed to inhibit” and the IC50 is above 488 µM. In addition, at SaSrtA, the IC50 is 282 µM.

As for `Cc1cc(NS(=O)(=O)c2ccc(C(C)(C)C)cc2)n(C2CCS(=O)(=O)C2)n1` (stereo not drawn) [Compound 2], the “Differential Growth” value in test [1] is recorded as 96.2 ± 0.3%. For the same compound, the MIC with A. oris MG-1 is 0.5 µg/mL (≈ 1.21 µM). Moreover, the “MIC (ΔgspA/ΔsrtA)” value against A. oris ΔgspAΔsrtA amounted to 2.1 µg/mL (≈ 5.1 µM). Moreover, at AoSrtA, the “Inhibition of AoSrtA in vitro” value is “failed to inhibit” and the IC50 is above 486 µM. The compound also came in with an IC50 at SaSrtA above 486 µM.

For orientation: MIC means the smallest concentration in the dilution series that meets the test's criterion for growth inhibition. Low readings indicate greater potency, high ones weaker potency. For orientation: IC50 means the concentration that inhibits the measured activity by half.

(Values after article PMC7244523, “A Cell-based Screen in Actinomyces oris to Identify Sortase Inhibitors” (Scientific Reports, 2020).)
